From PMC8607231, “Generation of KS-133 as a Novel Bicyclic Peptide with a Potent and Selective VIPR2 Antagonist Activity that Counteracts Cognitive Decline in a Mouse Model of Psychiatric Disorders” (Frontiers in Pharmacology, 2021) come the findings set out here.

In one experiment the target is T1, human VIPR2 (Homo sapiens, UniProt P41587).
T1 construct: host or cells: CHO-K1
T1 sequence (P41587 24-438): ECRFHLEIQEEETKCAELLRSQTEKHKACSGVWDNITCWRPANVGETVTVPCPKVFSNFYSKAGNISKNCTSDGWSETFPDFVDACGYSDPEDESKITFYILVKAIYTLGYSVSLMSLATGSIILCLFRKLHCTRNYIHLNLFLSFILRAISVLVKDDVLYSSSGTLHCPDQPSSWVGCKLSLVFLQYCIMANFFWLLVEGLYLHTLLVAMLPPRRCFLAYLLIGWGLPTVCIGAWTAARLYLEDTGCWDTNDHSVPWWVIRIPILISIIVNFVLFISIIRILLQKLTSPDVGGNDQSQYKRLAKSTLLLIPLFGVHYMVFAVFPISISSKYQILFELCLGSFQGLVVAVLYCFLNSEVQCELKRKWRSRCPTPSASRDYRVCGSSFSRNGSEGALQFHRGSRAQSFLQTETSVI
Briefly: HitHunter cAMP assay, antagonist mode. It counts as cell-based. Here is the method:
Evaluation of antagonist activities of peptides against VIP-VIPR1, VIP-VIPR2, and PACAP-PAC1 signaling pathways and agonistic activity of KS-133 at VIPR2 was carried out by Eurofins DiscoverX (Fremont, CA, United States). Intracellular calcium mobilization was monitored using a calcium-sensitive dye loaded in CHO-K1 cells expressing human VIPR1 (ITEM 86-0030P-2243AN), VIPR2 (ITEM 86-0030P-2244AN), and PAC1 (ITEM 86-0030P-2066AN). The cells were preincubated with antagonistic peptides for 30 min at room temperature in the dark. After addition of the ligand at EC80, calcium mobilization was immediately monitored by FLIPR Tetra for 2 min. Cyclic AMP production in CHO-K1 cells expressing human VIPR2 was evaluated using HitHunter® cAMP assays (antagonist mode: ITEM 86-0007P-2362AN; agonist mode: ITEM 86-0007P-2362AG). […] Cells were lysed and the cAMP content of the cell lysate was determined by the β-galactosidase-based enzyme fragment complementation assay ([Eglen, 2002]). […]
FIGURE 3 Antagonistic/agonistic activities of peptides in the calcium influx and cAMP assays. […] In the calcium influx assay, after addition of ligand at EC80, calcium mobilization was monitored immediately (see details in the Methods section) (n = 4 wells for each treatment). […]
Next, antagonistic and agonistic activities of KS-133 at VIPR2 were evaluated by a cAMP assay. […]

Experiment [1] concerns mouse model of psychiatric disorders on the basis of early postnatal activation of VIPR2. Briefly: Novel object recognition test in mouse model of early postnatal activation of VIPR2. To be noted: KS-133 1 nmol/g s.c. simultaneously with Ro 25-1553 0.07 nmol/g, P1-14. Format: in vivo. Here is the method: For behavioral experiments, all litters were randomly divided into Ro 25-1553- and PBS-treated groups. From P1 to P14, mice were injected s.c. once daily with Ro 25-1553 at a dose of 0.07 nmol/g ([Ago et al., 2015]). Mice treated with PBS from P1 to P14 were used as the control. KS-133 or the vehicle was simultaneously injected with Ro 25-1553 or PBS. Animals were weaned at P21 and divided by gender at P28. We used male mice exclusively to minimize any potential variability due to sex-specific effects on behavioral performance. All groups were derived from at least four different litters to preclude possible differences in individual maternal behaviors as a mitigating factor in any subsequent long-lasting changes induced in the offspring. […]
The novel object recognition test was carried out in accordance with previous reports ([Takuma et al., 2014]; [Hara et al., 2016]). […] The exploration time for each object in the retention session was measured with a stopwatch. […]
FIGURE 5 Effects of early postnatal treatment with Ro 25-1553 and KS-133 on recognition memory in the novel object recognition test. […] (B) Discrimination index (%) was calculated as the difference between novel and familiar object exploration times divided by the total time spent exploring the two objects. Results are expressed as the mean ± S.E.M. of 15–20 mice per group. **p < 0.01.

Where a SMILES comes first, the peptide text is derived from it. Bridges are numbered along the chain shown (N, C = ends).

A word on the IC50: it is the point on the concentration scale where inhibition reaches its midpoint. A high value points to a need for much substance. Turning to `CC[C@H](C)[C@H](NC(=O)[C@H](CC(C)C)NC(=O)[C@@H]1CC(=O)NCCCC[C@@H]2NC(=O)[C@@H]3CCCN3C(=O)[C@H](CC(C)C)NC(=O)[C@H](Cc3ccc(O)cc3)NC(=O)[C@@H]3CCCN3C(=O)[C@@H]3CCCN3C(=O)[C@@H](NC(C)=O)CSSC[C@H](NC(=O)[C@H](CC(C)C)NC(=O)[C@H](Cc3ccc(O)cc3)NC2=O)C(=O)N1)C(N)=O` [KS-133, Ac-c[Cys-Pro-Pro-Tyr-Leu-Pro-c(Lys-Tyr-Leu-Cys]-Asp)-Leu-Ile-NH2] (Ac-CPPYLPKYLCDLI-NH2; disulfide 1-10; lactam 7-11), the “Antagonism of VIP-VIPR2 signaling pathway” value on human VIPR2 (cAMP assay) is reported as “antagonized VIP-VIPR2 signaling pathway in a peptide concentration-dependent manner”. The same compound showed a concentration for half-maximal inhibition (IC50) on human VIPR2 (ligand VIP (0.5 nM) at EC80, CHO-K1 cells, n = 4 wells, ± S.E.M) of 500 ± 79 nM. Further, in experiment [1], the “Effect on Ro 25-1553-induced recognition memory deficit, novel object recognition test” value was “attenuated the decreases in the difference of time spent exploring each object and cognitive dysfunction”.
